For one test, the system named is LXFE 1422. Put plainly: Clonogenic assay, LXFE 1422. The class given is cell-based. The conditions noted are these: Homo sapiens, Lung, non-small cell, Squamous cell carcinoma, soft agar, read-out: IC50 (colony formation). Here is the method: (§1) The anticancer activity of (R)-2-amino-7-[2-(6-methoxy-pyridin-2-yl)-phenyl]-4-methyl-7,8-dihydro-6H-pyrido[4,3-d]pyrimidin-5-one is evaluated in 30 human tumor xenografts in vitro using a clonogenic assay. In this assay, human cells derived from cancer patients are evaluated for the capacity of (R)-2-amino-7-[2-(6-methoxy-pyridin-2-yl)-phenyl]-4-methyl-7,8-dihydro-6H-pyrido[4,3-d]pyrimidin-5-one to inhibit the formation of 3 dimensional colonies. […] The tumor xenografts which have never been cultured in cell culture plastic dishes are isolated from nude mice. Tumor cell suspensions are prepared and incubated in 24 well plates containing layers of soft agar. Under these conditions a special subpopulation of cells selectively grows to colonies. (R)-2-amino-7-[2-(6-methoxy-pyridin-2-yl)-phenyl]-4-methyl-7,8-dihydro-6H-pyrido[4,3-d]pyrimidin-5one is tested in 6 concentrations up to 1000 nM. The tumor test panel comprises 1 to 10 models of 12 different human tumor types, which were bladder cancer, colon, gastric, non small cell lung (adeno, squamous cell, and large cell), small cell lung, mammary, ovary, and prostate cancer, as well as leukemia, lymphoma, melanoma, and sarcoma. Antitumor effects are recorded as inhibition of colony formation in relation to untreated controls. […]

For another test, the system named is MAXF 1322. As to the kind of experiment: Clonogenic assay, MAXF 1322. It counts as cell-based. The settings on record: Homo sapiens, Breast, Pap. adenocarcinoma, soft agar, read-out: IC50 (colony formation). Here is the method:
as §1

Regarding `COc1cccc(-c2ccccc2[C@H]2Cc3nc(N)nc(C)c3C(=O)N2)n1` [(R)-2-amino-7-[2-(6-methoxy-pyridin-2-yl)-phenyl]-4-methyl-7,8-dihydro-6H-pyrido[4,3-d]pyrimidin-5-one], the IC50 was 20 nM in the test with LXFE 1422 and 52 nM in the test with MAXF 1322.

For orientation: IC50 means the point on the concentration scale where inhibition reaches its midpoint.

For the origin of these results see US20130045983A1, “HSP90 INHIBITORS FOR THERAPEUTIC TREATMENT” (Novartis AG, priority 2008, published 2013).
